Data published in the NIST ThermoML archive (doi:10.1016/j.jct.2017.08.004).

Assay: molar heat capacity at constant pressure
Settings: 101.33 kPa, Crystal

OC[C@@H](O)C(O)[C@H](O)CO [D-arabitol]
Settings	molar heat capacity at constant pressure [J/K/mol]
1 K, relaxation calorimetry	0.0009451
1.937 K, relaxation calorimetry	0.004787
2 K, relaxation calorimetry	0.005256
2.125 K, relaxation calorimetry	0.006243
2.35 K, relaxation calorimetry	0.008303
2.6 K, relaxation calorimetry	0.01105
2.887 K, relaxation calorimetry	0.01495
3 K, relaxation calorimetry	0.01673
3.199 K, relaxation calorimetry	0.02023
3.546 K, relaxation calorimetry	0.02753
3.931 K, relaxation calorimetry	0.03744
4 K, relaxation calorimetry	0.04001
4.359 K, relaxation calorimetry	0.05185
4.836 K, relaxation calorimetry	0.07292
5 K, relaxation calorimetry	0.08105
5.366 K, relaxation calorimetry	0.1017
5.953 K, relaxation calorimetry	0.1443
6 K, relaxation calorimetry	0.1475
6.605 K, relaxation calorimetry	0.205
7 K, relaxation calorimetry	0.2508
7.334 K, relaxation calorimetry	0.2964
8 K, relaxation calorimetry	0.4038
8.14 K, relaxation calorimetry	0.43
9 K, relaxation calorimetry	0.6157
9.034 K, relaxation calorimetry	0.6226
10 K, relaxation calorimetry	0.8917
10.11 K, relaxation calorimetry	0.9222
11.21 K, relaxation calorimetry	1.313
12.44 K, relaxation calorimetry	1.849
13.81 K, relaxation calorimetry	2.558
15 K, relaxation calorimetry	3.255
15.35 K, relaxation calorimetry	3.473
17.03 K, relaxation calorimetry	4.645
18.91 K, relaxation calorimetry	6.093
20 K, relaxation calorimetry	6.963
21.01 K, relaxation calorimetry	7.823
23.33 K, relaxation calorimetry	9.878
25 K, relaxation calorimetry	11.45
25.91 K, relaxation calorimetry	12.28
28.73 K, relaxation calorimetry	15.02
30 K, relaxation calorimetry	16.29
31.9 K, relaxation calorimetry	18.17
35 K, relaxation calorimetry	21.27
35.42 K, relaxation calorimetry	21.72
39.33 K, relaxation calorimetry	25.68
40 K, relaxation calorimetry	26.29
43.65 K, relaxation calorimetry	29.96
45 K, relaxation calorimetry	31.26
48.46 K, relaxation calorimetry	34.52
50 K, relaxation calorimetry	36.09
53.77 K, relaxation calorimetry	39.56
55 K, relaxation calorimetry	40.76
59.7 K, relaxation calorimetry	45.1
60 K, relaxation calorimetry	45.36
65 K, relaxation calorimetry	49.82
66.28 K, relaxation calorimetry	51.01
70 K, relaxation calorimetry	54.16
73.58 K, relaxation calorimetry	57.16
75 K, relaxation calorimetry	58.37
80 K, relaxation calorimetry	62.48
81.67 K, relaxation calorimetry	64.04
85 K, relaxation calorimetry	66.48
90 K, relaxation calorimetry	70.37
90.67 K, relaxation calorimetry	71
95 K, relaxation calorimetry	74.17
100 K, relaxation calorimetry	77.87
100.64 K, relaxation calorimetry	77.78
110 K, relaxation calorimetry	85.02
110.77 K, relaxation calorimetry	85.2
120 K, relaxation calorimetry	91.85
120.77 K, relaxation calorimetry	92.62
130 K, relaxation calorimetry	98.42
130.79 K, relaxation calorimetry	99.38
140 K, relaxation calorimetry	104.78
140.95 K, relaxation calorimetry	105.44
150 K, relaxation calorimetry	110.97
151.07 K, relaxation calorimetry	111.74
160 K, relaxation calorimetry	117.04
161.18 K, relaxation calorimetry	117.79
170 K, relaxation calorimetry	123.02
171.3 K, relaxation calorimetry	123.63
180 K, relaxation calorimetry	128.94
181.38 K, relaxation calorimetry	129.86
188.15 K, Small sample (50 mg) DSC	120.48
189.15 K, Small sample (50 mg) DSC	123.07
190 K, relaxation calorimetry	134.84
190.15 K, Small sample (50 mg) DSC	124.65
191.15 K, Small sample (50 mg) DSC	125.58
191.48 K, relaxation calorimetry	135.82
192.15 K, Small sample (50 mg) DSC	126.38
193.15 K, Small sample (50 mg) DSC	127.14
194.15 K, Small sample (50 mg) DSC	128.51
195.15 K, Small sample (50 mg) DSC	129.68
196.15 K, Small sample (50 mg) DSC	130.93
197.15 K, Small sample (50 mg) DSC	131.96
198.15 K, Small sample (50 mg) DSC	132.82
199.15 K, Small sample (50 mg) DSC	133.79
200 K, relaxation calorimetry	140.73
200.15 K, Small sample (50 mg) DSC	134.6
201.15 K, Small sample (50 mg) DSC	135.54
201.59 K, relaxation calorimetry	141.2
202.15 K, Small sample (50 mg) DSC	136.28
203.15 K, Small sample (50 mg) DSC	137.06
204.15 K, Small sample (50 mg) DSC	137.97
205.15 K, Small sample (50 mg) DSC	138.38
206.15 K, Small sample (50 mg) DSC	139.19
207.15 K, Small sample (50 mg) DSC	139.97
208.15 K, Small sample (50 mg) DSC	140.52
209.15 K, Small sample (50 mg) DSC	141.24
210 K, relaxation calorimetry	146.63
210.15 K, Small sample (50 mg) DSC	141.94
211.15 K, Small sample (50 mg) DSC	142.48
211.7 K, relaxation calorimetry	147.25
212.15 K, Small sample (50 mg) DSC	142.99
213.15 K, Small sample (50 mg) DSC	143.53
214.15 K, Small sample (50 mg) DSC	144.41
215.15 K, Small sample (50 mg) DSC	145.07
216.15 K, Small sample (50 mg) DSC	145.48
217.15 K, Small sample (50 mg) DSC	146.17
218.15 K, Small sample (50 mg) DSC	147.07
219.15 K, Small sample (50 mg) DSC	147.64
220 K, relaxation calorimetry	152.57
220.15 K, Small sample (50 mg) DSC	148.47
221.15 K, Small sample (50 mg) DSC	149.24
221.79 K, relaxation calorimetry	153.65
222.15 K, Small sample (50 mg) DSC	149.98
223.15 K, Small sample (50 mg) DSC	150.71
224.15 K, Small sample (50 mg) DSC	151.3
225.15 K, Small sample (50 mg) DSC	152.01
226.15 K, Small sample (50 mg) DSC	152.68
227.15 K, Small sample (50 mg) DSC	153.31
228.15 K, Small sample (50 mg) DSC	153.85
229.15 K, Small sample (50 mg) DSC	154.52
230 K, relaxation calorimetry	158.55
230.15 K, Small sample (50 mg) DSC	155.25
231.15 K, Small sample (50 mg) DSC	155.76
231.88 K, relaxation calorimetry	159.8
232.15 K, Small sample (50 mg) DSC	156.46
233.15 K, Small sample (50 mg) DSC	157.18
234.15 K, Small sample (50 mg) DSC	157.71
235.15 K, Small sample (50 mg) DSC	158.49
236.15 K, Small sample (50 mg) DSC	159.12
237.15 K, Small sample (50 mg) DSC	159.84
238.15 K, Small sample (50 mg) DSC	160.39
239.15 K, Small sample (50 mg) DSC	160.99
240 K, relaxation calorimetry	164.59
240.15 K, Small sample (50 mg) DSC	161.64
241.15 K, Small sample (50 mg) DSC	162.22
241.88 K, relaxation calorimetry	165.73
242.15 K, Small sample (50 mg) DSC	162.77
243.15 K, Small sample (50 mg) DSC	163.32
244.15 K, Small sample (50 mg) DSC	163.71
245.15 K, Small sample (50 mg) DSC	164.33
246.15 K, Small sample (50 mg) DSC	165.01
247.15 K, Small sample (50 mg) DSC	165.5
248.15 K, Small sample (50 mg) DSC	166.22
249.15 K, Small sample (50 mg) DSC	167
250 K, relaxation calorimetry	170.71
